Test results taken from US6426105B1, “Use of lysophosphatidylethanolamine (18.1) and lysophosphatidylinositol to retard senescence and to enhance fruit ripening” (Wisconsin Alumni Research Foundation, priority 1997, dated 2002).

How the values were obtained:
[1] = test system: partially purified cabbage PLD; assay: Partially purified cabbage PLD activity assay (PEOH release from PC); details: for Effect of components of the LPE molecule on PLD activity: FIG. 2; for Effect of different lysophospholipids on PLD activity: FIG. 5
[2] = test system: tomato leaves; assay: Retardation of ethephon-induced leaf senescence in tomato plants; type: in vivo, Tomato plants cv. H9144; details: ethephon 1000 mg/L ± lysophospholipid 50 mg/L spray; 10 to 14 days after treatment; Mean ± SE
Description: Ethephon, also known as Ethrel, (Ethrel is a trademark of Rhone-Poulenc Ag. Co. (Research Triangle Park, N.C.)) is an aqueous formulation that decomposes to ethylene and is used widely to maximize the yield of ripe tomato fruits in once-over harvesting operations. […] Tomato plants cv. H9144 were grown in a greenhouse for two and a half months to serve as sources of leaf samples. Plant were sprayed to runoff with ethephon at 1000 mg/L or with ethephon plus lysophospholipid mixtures as shown below in Table 6. Lysophospholipid solutions at 50 mg/L were prepared in 1% (v/v) ethanol and mixed with ethephon (1000 mg/L). Control plans were sprayed with ethephon alone in 1% (v/v) ethanol. Senescence of treated leaves was quantified 10 to 14 days after treatment by measuring chlorophyll and protein content.

[3] = test system: cranberry fruits; assay: Ethylene production of postharvest cranberry fruits after LPE dip; type: in vivo, Vaccinium macrocarpon Ait. 'Stevens'; details: for Ethylene production, Relative %: 100 μM, control = 100
Description: However, the impact of different acyl chains of LPE on fruit senescence has not been investigated. In the present study, complementary to the effect of different acyl chains of LPE on PLD activity, the inventors investigated the effect of different acyl chains of LPE on ethylene production of cranberry fruits. Fully ripened cranberry fruits (Vaccinium macrocarpon Ait. 'Stevens') were harvested during the fall season and kept in a cold room. […] After two days, berries were incubated in a sealed glass jar for 24 hours in order to measure ethylene production. Ethylene was quantified with a gas chromatograph equipped with a flame ionization detector (Shinadzu 9AM, Shimadzu Corporation, Kyoto, Japan) (3).

[4] = test system: soluble cabbage PLD; assay: Soluble PLD activity, cabbage leaf extract (radio-labeled PC); type: biochemical, cabbage (Brassica oleracea L. Blue Vintage)
[5] = test system: membrane-associated cabbage PLD; assay: Membrane-associated PLD activity, cabbage leaf extract; type: biochemical, cabbage (Brassica oleracea L. Blue Vintage)
[6] = test system: tomato fruits; assay: Retardation of senescence of harvested mature green tomato fruits; type: in vivo, Lycopersicon esculentum cv. H9144; details: for Ethylene Production after 7 days / Rotten fruits after 3 weeks (% of total): 100 mg/L in 1% ethanol, 20 min dip; for Ethylene Production after 7 days: control 1.26 ± 0.21, Mean ± SE; for Rotten fruits after 3 weeks (% of total): control 37.2; for ethylene production relative to control: 7 days after treatment
Description: Mature green fruits of tomato (Lycopersicon esculentum cv. […]) were harvested from three month old plants. […] The control tomatoes were dipped in distilled water containing 1% ethol. After dipping, the fruits were stored at room temperature for 3 weeks. Production of ethylene gas was measured 7 days after treatment.

[7] = test system: tomato plants/fruits; assay: Enhancement of tomato fruit ripening and stability by preharvest spray; type: in vivo, Tomato plants cv. H9478; details: 100 mg/L spray 10 days before harvest; for At Harvest, Partial Red fruits (weight % of total): control 13.2; for At Harvest, Green fruits (weight % of total): control 33.2; for 3 Weeks After Harvest, Soft Fruits (non marketable) (weight % of total): control 47.8; for At Harvest, Red fruits (weight % of total): control 53.6
Description: This experiment was conducted to compare the effects of […] (18:1) and LPI on fruit ripening. Tomato plants cv. […] were grown in pots for two and one-half months under fluorescent lights. […] All solutions contained 1% ethol and 0.05% […] 309 (Dow Corning Co., Midland, Mich.) as activating agents. Control plants received distilled water containing 1% ethanol and 0.05% […] 309. Fruits were harvested 10 days after treatment and graded into green, partial red, and red (indicating full ripening). […] (see Table 7).

[8] = test system: soluble castor bean PLD
[9] = test system: membrane-associated castor bean PLD
[10] = test system: carnation flowering spikes; assay: Vase life of cut carnation flowers; details: 25 mg/L; control 27.5 ± 3.3; Mean ± SE
[11] = test system: snapdragon flowering spikes; assay: Vase life and senescence of cut snapdragon spikes; details: for Spikes with Wilted Flower Florets after 7 days (% of total): 24 hr; for Spikes with Wilted Flower Florets after 7 days (% of total) / Water Content of Leaf after 18 days (Fresh wt/Dry wt): Mean ± SE; for Water Content of Leaf after 18 days (Fresh wt/Dry wt): control 5.79 ± 0.18; for Vase Life of Spikes (Days when > 50% of spikes remained marketable): control 4; for Leaf water content of spikes: 18 days after treatment; for spikes wilted after 7 days of treatment: range over tested concentrations, control 76%
[12] = test system: senescing leaves; assay: Leaf chlorophyll content after eight day senescence; type: in vivo; details: after eight day senescence (FIG. 6)
Description: To evaluate the relative efficacy of various species of lysophospholipids in delaying senescence in leaves, treatment solutions containing lysophosphatidic acid (LPA), lysophosphatidylcholine (LPC),LPE, LPI, or water were applied to leaves. The chlorophyll content of each sample was measured by standard methods (10) after an eight day senescence. The relative chlorophyll contents were expressed as the percentage of the control.

[13] = 200 μM, PC substrate (FIG. 1, 2, 5)

CCCCCCCC/C=C\CCCCCCCC(=O)O [18:1 fatty acid] was tested, and the “Effect of components of the LPE molecule on PLD activity” value [1] was “no inhibitory effect”.

For O=P(O)(O)CCCl [Ethephon (E), ethephon], the “Chlorophyll Content” value [2] was 3.65 ± 0.25 mg/g dry wt and the “Protein Content” value [2] was 58.8 ± 14.7 mg/g dry wt.

With CCCCCCCCCCCCCCCC(=O)OCC(O)COP(=O)(O)OCCN (stereo not shown) [LPE16:0] the “Ethylene production, Relative %” value [3] was 92.7%.

With CCCCCCCCCCCCCCCCCC(=O)OCC(O)COP(=O)(O)OCCN (stereo not shown) [LPE18:0] the “Ethylene production, Relative %” value [3] was 71.3%.

CCCCCCCCCCCCCC(=O)OCC(O)COP(=O)(O)OCCN (stereo not shown) [LPE 14:0] was tested, and the “Ethylene production, Relative %” value [3] was 100.0% and the “Effect on PLD activity” value ([1]; 40 and 200 μM, LPE with different acyl chains (FIG. 1)) was “very little effect”.

For CCCCCCCC/C=C\CCCCCCCC(=O)OCC(O)COP(=O)(O)OCCN (stereo not shown) [LPE (18:1), lysophosphatidylethanolamine (18:1)], the “Ratio (LPE/Control), Soluble PLD, Cabbage” value ([4]; 200 μM) was 0.51, the “Soluble PLD activity, Cabbage” value ([4]; 200 μM, control 45.2 ± 3.5, mean ±SE) was 23.1 ± 1.6 nmol min^−1 mg^−1 protein and the “Specific activity of soluble cabbage PLD, % of the control” value ([4]; in the presence of LPE (18:1)) was 51%. For the same compound, the “Ratio (LPE/Control), Membrane-associated PLD, Cabbage” value ([5]; 200 μM) was 0.59, the “Membrane-associated PLD activity, Cabbage” value ([5]; 200 μM, control 368.8 ± 6.5, mean ±SE) was 217.0 ± 13.0 nmol min^−1 mg^−1 protein and the “Specific activity of membrane-associated cabbage PLD, % of the control” value ([5]; in the presence of LPE (18:1)) was 59%. For the same compound, the “Ethylene production, Relative %” value [3] was 59.6%, the “decrease in ethylene production” value ([3]; 2 days after treatment) was 40% and the “Ethylene Production after 7 days” value [6] was 0.70 ± 0.20 nl/g. hr^1. For the same compound, the “Rotten fruits after 3 weeks (% of total)” value [6] was 7.7 % of total, the “ethylene production relative to control” value [6] was “about half of the control” and the “At Harvest, Partial Red fruits (weight % of total)” value [7] was 11.7 weight % of total. For the same compound, the “At Harvest, Green fruits (weight % of total)” value [7] was 22.9 weight % of total, the “3 Weeks After Harvest, Soft Fruits (non marketable) (weight % of total)” value [7] was 33.0 weight % of total and the “At Harvest, Red fruits (weight % of total)” value [7] was 65.4 weight % of total. The “Soluble castor bean PLD activity, % of the control” value [8] was 30%, the “Ratio (LPE/Control), Soluble PLD, Castor Bean” value ([8]; 200 μM) was 0.30 and the “Soluble PLD activity, Castor Bean” value ([8]; 200 μM) was 3.1 ± 0.1 nmol min^−1 mg^−1 protein. For the same compound, the “Membrane-associated castor bean PLD activity, % of the control” value [9] was 31%, the “Membrane-associated PLD activity, Castor Bean” value ([9]; 200 μM) was 47.0 ± 3.6 nmol min^−1 mg^−1 protein and the “Ratio (LPE/Control), Membrane-associated PLD, Castor Bean” value ([9]; 200 μM) was 0.31. For the same compound, the “Marketable Flowers after 6 days of treatment (% of total)” value [10] was 41.7 ± 8.3 % of total, the “Spikes with Wilted Flower Florets after 7 days (% of total)” value ([11]; 5 mg/L, control 75.5 ± 10.3) was 34.5 ± 5.5 % of total and the “Water Content of Leaf after 18 days (Fresh wt/Dry wt)” value ([11]; 5 mg/L) was 7.81 ± 0.22 Fresh wt/Dry wt. For the same compound, the “Spikes with Wilted Flower Florets after 7 days (% of total)” value ([11]; 10 mg/L) was 30.0 ± 5.5 % of total, the “Vase Life of Spikes (Days when > 50% of spikes remained marketable)” value ([11]; 10 mg/L) was 12 days and the “Spikes with Wilted Flower Florets after 7 days (% of total)” value ([11]; 25 mg/L) was 38.7 ± 8.5 % of total. For the same compound, the “Leaf water content of spikes” value [11] was “higher than that of LPEegg and water-treated spikes”, the “spikes wilted after 7 days of treatment” value [11] was 30-39% and the “PLD activity, % of the control” value ([1]; 10 μM (FIG. 3)) was 50%. For the same compound, the “PLD activity, % of the control” value ([1]; 40 μM, PC substrate (FIG. 1)) was 16%, the “PLD activity, % of the control” value [1, 13] was 11% and the Vmax ([1]; in the presence of LPE (18:1), control Vmax 20.0) was 2.9 μmol min^−1 mg^−1 protein. For the same compound, the Km ([1]; read-out: apparent Km for PLD, in the presence of LPE, substrate PC (FIG. 4)) was 1700 µM and the “Type of PLD inhibition” value ([1]; substrate concentration varied (FIG. 4)) was “non-competitive inhibition”.

With NCCO [ethanolamine] the “Effect of components of the LPE molecule on PLD activity” value [1] was “no inhibitory effect”.

Lysophosphatidylcholine [LPC] was tested, and the “Effect of different lysophospholipids on PLD activity” value (“Effect of different lysophospholipids” below) [1] was “did not significantly affect”.

For lysophosphatidic acid [LPA], the “PLD activity, % of the control” value [1, 13] was 169% and the “Effect of different lysophospholipids” value [1] was “significantly increased PLD activity”.

For lysophosphatidylglycerol [LPG], the “Effect of different lysophospholipids” value [1] was “did not significantly affect”.

With lysophosphatidylinositol [LPI] the “chlorophyll content of senescing leaves” value [12] was “much higher than leaves treated with LPA, LPC or LPEegg”, the “Ethylene Production after 7 days” value [6] was 0.71 ± 0.40 nl/g. hr^1 and the “Rotten fruits after 3 weeks (% of total)” value [6] was 17.5 % of total. For the same compound, the “ethylene production relative to control” value [6] was “about half of the control”, the “At Harvest, Partial Red fruits (weight % of total)” value [7] was 11.7 weight % of total and the “At Harvest, Green fruits (weight % of total)” value [7] was 18.3 weight % of total. For the same compound, the “3 Weeks After Harvest, Soft Fruits (non marketable) (weight % of total)” value [7] was 25.6 weight % of total, the “At Harvest, Red fruits (weight % of total)” value [7] was 70.1 weight % of total and the “Marketable Flowers after 6 days of treatment (% of total)” value [10] was 44.2 ± 8.3 % of total. The “Spikes with Wilted Flower Florets after 7 days (% of total)” value ([11]; 5 mg/L, control 75.5 ± 10.3) was 21.6 ± 7.0 % of total, the “Water Content of Leaf after 18 days (Fresh wt/Dry wt)” value ([11]; 5 mg/L) was 7.57 ± 0.52 Fresh wt/Dry wt and the “Spikes with Wilted Flower Florets after 7 days (% of total)” value ([11]; 10 mg/L) was 15.0 ± 11.5 % of total. The “Vase Life of Spikes (Days when > 50% of spikes remained marketable)” value ([11]; 10 mg/L) was 13 days, the “Spikes with Wilted Flower Florets after 7 days (% of total)” value ([11]; 25 mg/L) was 17.8 ± 7.5 % of total and the “Leaf water content of spikes” value [11] was “higher than that of LPEegg and water-treated spikes”. The “spikes wilted after 7 days of treatment” value [11] was 15-22%, the “PLD activity, % of the control” value [1, 13] was 31% and the “Effect of different lysophospholipids” value [1] was “inhibitory effects somewhat similar to those of LPE”.

For lysophosphatidylserine [LPS], the “Effect of different lysophospholipids” value [1] was “did not significantly affect”.

phosphatidylethanolamine [PE] was tested, and the “PLD activity, % of the control” value [1, 13] was 126%.
